Assay results: the supplement of paper PMC8671470

tested on: HL-60; assay: cell viability (% survival relative to DMSO control, bortezomib = 0%); higher = less cytotoxic; details: 100 nM; 72 h
Method in brief: (§1)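 Percent survival is reported as the mean of duplicate wells. Cells from 10 AML and 5 CML lines were plated in 384-well plates containing compounds at 1, 10, 100, 1000 or 10000 nM and kept for 72 h at 37 °C in 5% CO2. Readout used CellTiter-Glo luminescence, scaled so that vehicle equals 100% and a 10 µM positive control equals 0%.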

Row | SMILES | cell viability [%]
1 | OC[C@H]1O[C@@H](n2cnc3c2N=CNC[C@H]3O)C[C@@H]1O [Pentostatin] | 98.2
2 | CC(C)CC(=O)N[C@H](C(=O)N[C@H](C(=O)N[C@@H](CC(C)C)[C@@H](O)CC(=O)N[C@@H](C)C(=O)N[C@@H](CC(C)C)[C@@H](O)CC(=O)O)C(C)C)C(C)C [Pepstatin A] | 111
3 | Cc1cccc(Nc2cc(Cl)nc(SCC(=O)O)n2)c1C [Pirinixic acid] | 116
4 | C[C@]12C=CC(=O)C=C1CC[C@@H]1[C@@H]2[C@@H](O)C[C@@]2(C)[C@H]1CC[C@]2(O)C(=O)CO [Prednisolone] | 104
5 | C=CCN(C)CCCCCCOc1ccc(C(=O)c2ccc(Br)cc2)c(F)c1.O=C(O)/C=C/C(=O)O [Ro 48-8071 fumarate] | 84.3

same assay, conditions: 1000 nM; 72 h

Row | SMILES | cell viability [%]
6 | CN(Cc1cnc2nc(N)nc(N)c2n1)c1ccc(C(=O)N[C@@H](CCC(=O)O)C(=O)O)cc1 [Methotrexate] | 7.28
7 | COC(=O)c1cc2c(C(F)(F)F)cc(-c3ccccc3)cc2n1O [NHI-2] | 97.2
8 | CCCCCCCC/C=C\CCCCCCCC(=O)Nc1ccccc1 [Octadec-9-Enoic Acid Phenylamide] | 100
9 | CC[C@H](C)[C@H](N)C(=O)N1CCSC1 [P32/98] | 98.6
10 | CC(=O)Nc1nc(C)c(-c2ccc(Cl)c(S(=O)(=O)NCCO)c2)s1 [PIK93] | 50.7
11 | OC[C@H]1O[C@@H](n2cnc3c2N=CNC[C@H]3O)C[C@@H]1O [Pentostatin] | 100
12 | CC(C)CC(=O)N[C@H](C(=O)N[C@H](C(=O)N[C@@H](CC(C)C)[C@@H](O)CC(=O)N[C@@H](C)C(=O)N[C@@H](CC(C)C)[C@@H](O)CC(=O)O)C(C)C)C(C)C [Pepstatin A] | 144
13 | Cc1cccc(Nc2cc(Cl)nc(SCC(=O)O)n2)c1C [Pirinixic acid] | 93.8
14 | C[C@]12C=CC(=O)C=C1CC[C@@H]1[C@@H]2[C@@H](O)C[C@@]2(C)[C@H]1CC[C@]2(O)C(=O)CO [Prednisolone] | 114
15 | C=CCN(C)CCCCCCOc1ccc(C(=O)c2ccc(Br)cc2)c(F)c1.O=C(O)/C=C/C(=O)O [Ro 48-8071 fumarate] | 98.8

same assay, conditions: 10000 nM; 72 h

Row | SMILES | cell viability [%]
16 | CN(Cc1cnc2nc(N)nc(N)c2n1)c1ccc(C(=O)N[C@@H](CCC(=O)O)C(=O)O)cc1 [Methotrexate] | 8.39
17 | COC(=O)c1cc2c(C(F)(F)F)cc(-c3ccccc3)cc2n1O [NHI-2] | 96.8
18 | CCCCCCCC/C=C\CCCCCCCC(=O)Nc1ccccc1 [Octadec-9-Enoic Acid Phenylamide] | 124
19 | CC[C@H](C)[C@H](N)C(=O)N1CCSC1 [P32/98] | 76.7
20 | CC(=O)Nc1nc(C)c(-c2ccc(Cl)c(S(=O)(=O)NCCO)c2)s1 [PIK93] | 3.89
21 | OC[C@H]1O[C@@H](n2cnc3c2N=CNC[C@H]3O)C[C@@H]1O [Pentostatin] | 118
22 | CC(C)CC(=O)N[C@H](C(=O)N[C@H](C(=O)N[C@@H](CC(C)C)[C@@H](O)CC(=O)N[C@@H](C)C(=O)N[C@@H](CC(C)C)[C@@H](O)CC(=O)O)C(C)C)C(C)C [Pepstatin A] | 84.6
23 | Cc1cccc(Nc2cc(Cl)nc(SCC(=O)O)n2)c1C [Pirinixic acid] | 98.2
24 | C[C@]12C=CC(=O)C=C1CC[C@@H]1[C@@H]2[C@@H](O)C[C@@]2(C)[C@H]1CC[C@]2(O)C(=O)CO [Prednisolone] | 116
25 | C=CCN(C)CCCCCCOc1ccc(C(=O)c2ccc(Br)cc2)c(F)c1.O=C(O)/C=C/C(=O)O [Ro 48-8071 fumarate] | 24.7

tested on: K-562; assay: as above; details: 1 nM; 72 h
Method in brief: as §1

Row | SMILES | cell viability [%]
26 | CN(Cc1cnc2nc(N)nc(N)c2n1)c1ccc(C(=O)N[C@@H](CCC(=O)O)C(=O)O)cc1 [Methotrexate] | 86.9
27 | COC(=O)c1cc2c(C(F)(F)F)cc(-c3ccccc3)cc2n1O [NHI-2] | 98.8
28 | CCCCCCCC/C=C\CCCCCCCC(=O)Nc1ccccc1 [Octadec-9-Enoic Acid Phenylamide] | 110
29 | CC[C@H](C)[C@H](N)C(=O)N1CCSC1 [P32/98] | 101
30 | CC(=O)Nc1nc(C)c(-c2ccc(Cl)c(S(=O)(=O)NCCO)c2)s1 [PIK93] | 134
31 | OC[C@H]1O[C@@H](n2cnc3c2N=CNC[C@H]3O)C[C@@H]1O [Pentostatin] | 95.3
32 | CC(C)CC(=O)N[C@H](C(=O)N[C@H](C(=O)N[C@@H](CC(C)C)[C@@H](O)CC(=O)N[C@@H](C)C(=O)N[C@@H](CC(C)C)[C@@H](O)CC(=O)O)C(C)C)C(C)C [Pepstatin A] | 95.1
33 | Cc1cccc(Nc2cc(Cl)nc(SCC(=O)O)n2)c1C [Pirinixic acid] | 99.8
34 | C[C@]12C=CC(=O)C=C1CC[C@@H]1[C@@H]2[C@@H](O)C[C@@]2(C)[C@H]1CC[C@]2(O)C(=O)CO [Prednisolone] | 112
35 | C=CCN(C)CCCCCCOc1ccc(C(=O)c2ccc(Br)cc2)c(F)c1.O=C(O)/C=C/C(=O)O [Ro 48-8071 fumarate] | 87

same assay, conditions: 10 nM; 72 h

Row | SMILES | cell viability [%]
36 | CN(Cc1cnc2nc(N)nc(N)c2n1)c1ccc(C(=O)N[C@@H](CCC(=O)O)C(=O)O)cc1 [Methotrexate] | 103
37 | COC(=O)c1cc2c(C(F)(F)F)cc(-c3ccccc3)cc2n1O [NHI-2] | 91.1
38 | CCCCCCCC/C=C\CCCCCCCC(=O)Nc1ccccc1 [Octadec-9-Enoic Acid Phenylamide] | 92.7
39 | CC[C@H](C)[C@H](N)C(=O)N1CCSC1 [P32/98] | 98.6
40 | CC(=O)Nc1nc(C)c(-c2ccc(Cl)c(S(=O)(=O)NCCO)c2)s1 [PIK93] | 98.9
41 | OC[C@H]1O[C@@H](n2cnc3c2N=CNC[C@H]3O)C[C@@H]1O [Pentostatin] | 106
42 | CC(C)CC(=O)N[C@H](C(=O)N[C@H](C(=O)N[C@@H](CC(C)C)[C@@H](O)CC(=O)N[C@@H](C)C(=O)N[C@@H](CC(C)C)[C@@H](O)CC(=O)O)C(C)C)C(C)C [Pepstatin A] | 85.5
43 | Cc1cccc(Nc2cc(Cl)nc(SCC(=O)O)n2)c1C [Pirinixic acid] | 92.3
44 | C[C@]12C=CC(=O)C=C1CC[C@@H]1[C@@H]2[C@@H](O)C[C@@]2(C)[C@H]1CC[C@]2(O)C(=O)CO [Prednisolone] | 88.7
45 | C=CCN(C)CCCCCCOc1ccc(C(=O)c2ccc(Br)cc2)c(F)c1.O=C(O)/C=C/C(=O)O [Ro 48-8071 fumarate] | 104

same assay, conditions: 100 nM; 72 h

Row | SMILES | cell viability [%]
46 | CN(Cc1cnc2nc(N)nc(N)c2n1)c1ccc(C(=O)N[C@@H](CCC(=O)O)C(=O)O)cc1 [Methotrexate] | 13.3
47 | COC(=O)c1cc2c(C(F)(F)F)cc(-c3ccccc3)cc2n1O [NHI-2] | 93.8
48 | CCCCCCCC/C=C\CCCCCCCC(=O)Nc1ccccc1 [Octadec-9-Enoic Acid Phenylamide] | 95.8
49 | CC[C@H](C)[C@H](N)C(=O)N1CCSC1 [P32/98] | 96.6
50 | CC(=O)Nc1nc(C)c(-c2ccc(Cl)c(S(=O)(=O)NCCO)c2)s1 [PIK93] | 110
51 | OC[C@H]1O[C@@H](n2cnc3c2N=CNC[C@H]3O)C[C@@H]1O [Pentostatin] | 111
52 | CC(C)CC(=O)N[C@H](C(=O)N[C@H](C(=O)N[C@@H](CC(C)C)[C@@H](O)CC(=O)N[C@@H](C)C(=O)N[C@@H](CC(C)C)[C@@H](O)CC(=O)O)C(C)C)C(C)C [Pepstatin A] | 96.9
53 | Cc1cccc(Nc2cc(Cl)nc(SCC(=O)O)n2)c1C [Pirinixic acid] | 102
54 | C[C@]12C=CC(=O)C=C1CC[C@@H]1[C@@H]2[C@@H](O)C[C@@]2(C)[C@H]1CC[C@]2(O)C(=O)CO [Prednisolone] | 104
55 | C=CCN(C)CCCCCCOc1ccc(C(=O)c2ccc(Br)cc2)c(F)c1.O=C(O)/C=C/C(=O)O [Ro 48-8071 fumarate] | 102

same assay, conditions: 1000 nM; 72 h

Row | SMILES | cell viability [%]
56 | CN(Cc1cnc2nc(N)nc(N)c2n1)c1ccc(C(=O)N[C@@H](CCC(=O)O)C(=O)O)cc1 [Methotrexate] | 18.9
57 | COC(=O)c1cc2c(C(F)(F)F)cc(-c3ccccc3)cc2n1O [NHI-2] | 87.4
58 | CCCCCCCC/C=C\CCCCCCCC(=O)Nc1ccccc1 [Octadec-9-Enoic Acid Phenylamide] | 104
59 | CC[C@H](C)[C@H](N)C(=O)N1CCSC1 [P32/98] | 101
